Earlier results as cited in article PMC11659887 (ACS Bio & Med Chem Au, 2024).

Tested on: SARS-CoV-2 M^pro E166Q

CC(C)(C)[C@H](NC(=O)C(F)(F)F)C(=O)N1C[C@H]2[C@@H]([C@H]1C(=O)N[C@H](C#N)C[C@@H]1CCNC1=O)C2(C)C [nirmatrelvir, Nirmatrelvir]
resistance to nirmatrelvir: no significant resistance
